molecular target: T1, β2-adrenergic receptor (B2-AR) (Homo sapiens, UniProt P07550); assay: cAMP Gs dynamic HTRF assay, cells expressing β2-adrenergic receptor; type: cell-based; conditions: CHO-K1 (HitHunter) cells; read-out: Average pEC50 [Receptor subtype: B2-AR; Cell type: CHO-K1 (HitHunter)] (converted)
T1 construct: expressed in transfected cells
Description: (§1) cAMP homogeneous time-resolved fluorescence (HTRF): experimental methods. Compound efficacy is determined using the cAMP Gs dynamic HTRF assay (Cisbio, catalog #62AM4PEC) largely following the manufacturer's instructions, also detailed below.
(§2) Standard serial dilution curves are 10-point, 5-fold dilutions starting from a highest concentration of 10 μM. […] Assay plates are centrifuged at 500×g for 10 seconds. Compounds and IBMX are prepared at 2× final dose to compensate for addition of cells.
(§3) Cell preparation: 1× stimulation buffer, washing PBS (Dulbecco's phosphate-buffered saline, —Mg —Ca; Caisson Labs, catalog #PBL01), assay PBS (Dulbecco's phosphate-buffered saline, +Mg, +Ca; Caisson Labs, catalog #PBL02) and Versene (0.02% EDTA disodium salt solution in PBS without calcium or magnesium; Caisson Labs, catalog #EDL01) are pre-warmed to 37° C. Cells expressing beta-adrenergic receptor were washed in washing PBS to remove growth medium and then released from the surface by incubating with Versene for 5-10 minutes at 37° C. Cells are harvested using assay PBS, counted manually by hemocytometer or by an automated cell counter, pelleted by centrifugation (200×g, 5 minutes) and resuspended in 37° C. 1× stimulation buffer to a final density of […]. 5 μL of the suspended cell solution (7500 cell total) are added to all wells of the 384 well assay plate, the assay plate was covered with an Axygen® plate seal (Corning PCR-SP) and incubated in a humidified 37° C. environment supplemented with 5% CO2 for 30 minutes.
(§4) HTRF reagent addition, reading and data analysis: After 30 minutes of cell stimulation with test compound, the assay plates are centrifuged at 500×g for 10 seconds, and incubation was stopped with the addition of 5 μL cAMP-D2 acceptor, diluted 1:21 in detection and lysis buffer 2 (Cisbio 62CL2FDF) was added to all cells. Subsequently, 5 μL Anti-cAMP-Eu Donor, diluted 1:21 in detection and lysis buffer 2, was added to cells. Plates were sealed and reactions gently ‘vortexed’ at 900 rpm on a Heidolph Titramax 1000 for at least 30 minutes at room temperature. Plates are centrifuged again at 500×g for 10 seconds, and HTRF was measured using a Tecan Spark plate reader at 50 flashes per well. […] Potency estimates (EC50 and pEC50) are derived from the four-parameter nonlinear regression of the concentration-effect curve and an estimate of relative efficacy is determined by comparing the magnitude of the test compound HTRF signal window (min-max dose) with the signal window of the full agonist control, isoproterenol.

T1 sequence (P07550 whole entry): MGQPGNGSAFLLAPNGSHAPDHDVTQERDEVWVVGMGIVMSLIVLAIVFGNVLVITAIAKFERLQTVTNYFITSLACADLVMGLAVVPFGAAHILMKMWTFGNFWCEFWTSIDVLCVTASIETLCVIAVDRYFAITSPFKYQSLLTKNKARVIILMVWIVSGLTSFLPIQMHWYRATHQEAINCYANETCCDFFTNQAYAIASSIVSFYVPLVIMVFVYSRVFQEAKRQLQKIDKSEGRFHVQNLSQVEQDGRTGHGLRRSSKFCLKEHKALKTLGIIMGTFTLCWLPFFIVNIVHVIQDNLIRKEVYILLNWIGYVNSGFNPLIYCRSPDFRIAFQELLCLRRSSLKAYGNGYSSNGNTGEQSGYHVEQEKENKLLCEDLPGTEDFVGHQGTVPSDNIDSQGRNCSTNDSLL

| SMILES | EC50 |
| --- | --- |
| CC(C)(C)NC[C@H](O)c1nccc2[nH]ncc12 [Compound 04-144, (S)-2-(tert-butylamino)-1-(1H-pyrazolo[4,3-c]pyridin-4-yl)ethan-1-ol] | > 1000 nM |
| CC(C)(C)NC[C@@H](O)c1nccc2[nH]ncc12 [Compound 04-145, (R)-2-(tert-butylamino)-1-(1H-pyrazolo[4,3-c]pyridin-4-yl)ethan-1-ol] | > 1000 nM |
| CC(C)CNC[C@H](O)c1cc(F)cc2[nH]ncc12 [Compound 04-146] | < 10 nM |
| CC1(NC[C@H](O)c2cc(F)cc3[nH]ncc23)CC1 [Compound 04-147] | < 10 nM |
| CC1(NC[C@H](O)c2cc(F)cc3[nH]ncc23)CCC1 [Compound 04-148] | < 10 nM |
| CC(C)NC[C@H](O)c1cc(F)cc2[nH]ncc12 [Compound 04-149] | < 10 nM |
| COc1ccc([C@@H](O)CNC(C)(C)C)c2cn[nH]c12 [Compound 04-150] | < 10 nM |
| CC(C)(C)NC[C@H](O)c1cccc2[nH]nc(C#N)c12 [Compound 04-151] | 10 to 100 nM |
| CC(C)NC[C@H](O)c1cccc2[nH]c(=O)ccc12 [Compound 04-152] | < 10 nM |
| CC(C)(C)NC[C@H](O)c1cccc2[nH]ncc12 [Compound 04-153] | 10 to 100 nM |
| COc1cc([C@@H](O)CNC(C)(C)C)c2cn[nH]c2c1 [Compound 04-154] | < 10 nM |
| Cc1cc([C@@H](O)CNC(C)(C)C)cc2nc[nH]c12 [Compound 04-155] | 100 to 1000 nM |
| CC(C)(C)NC[C@H](O)c1cc(F)c2[nH]cnc2c1 [Compound 04-156] | < 10 nM |
| CC(C)(C)NC[C@H](O)c1cnc2[nH]cnc2c1 [Compound 04-157] | 10 to 100 nM |
| CC(C)(C)NC[C@H](O)c1cccc2c1C(F)(F)C(=O)N2 [Compound 04-158] | < 10 nM |

molecular target: T2, β1-adrenergic receptor (B1-AR) (Homo sapiens, UniProt P08588); assay: cAMP Gs dynamic HTRF assay, cells expressing β1-adrenergic receptor; type: cell-based; conditions: CHO-K1 (HitHunter) cells; read-out: Average pEC50 [Receptor subtype: B1-AR; Cell type: CHO-K1 (HitHunter)] (converted)
T2 construct: expressed in transfected cells
T2 sequence (P08588 whole entry): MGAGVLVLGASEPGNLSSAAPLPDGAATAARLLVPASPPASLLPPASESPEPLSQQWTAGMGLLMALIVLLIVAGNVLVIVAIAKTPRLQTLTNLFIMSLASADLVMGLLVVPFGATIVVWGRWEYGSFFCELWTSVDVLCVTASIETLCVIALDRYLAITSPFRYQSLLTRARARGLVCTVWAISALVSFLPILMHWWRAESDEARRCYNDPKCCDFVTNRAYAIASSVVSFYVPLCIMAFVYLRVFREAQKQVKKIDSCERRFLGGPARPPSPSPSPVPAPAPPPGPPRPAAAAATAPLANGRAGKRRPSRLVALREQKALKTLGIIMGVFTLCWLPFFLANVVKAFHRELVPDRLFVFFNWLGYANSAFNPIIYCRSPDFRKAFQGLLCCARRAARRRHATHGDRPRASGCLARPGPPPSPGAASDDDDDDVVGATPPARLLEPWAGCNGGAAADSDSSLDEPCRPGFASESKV
Description: as §1, §2, §3, §4

| SMILES | EC50 |
| --- | --- |
| CC(C)(C)NC[C@H](O)c1nccc2[nH]ncc12 [Compound 04-144, (S)-2-(tert-butylamino)-1-(1H-pyrazolo[4,3-c]pyridin-4-yl)ethan-1-ol] | > 1000 nM |
| CC(C)(C)NC[C@@H](O)c1nccc2[nH]ncc12 [Compound 04-145, (R)-2-(tert-butylamino)-1-(1H-pyrazolo[4,3-c]pyridin-4-yl)ethan-1-ol] | > 1000 nM |
| CC(C)CNC[C@H](O)c1cc(F)cc2[nH]ncc12 [Compound 04-146] | < 10 nM |
| CC1(NC[C@H](O)c2cc(F)cc3[nH]ncc23)CC1 [Compound 04-147] | < 10 nM |
| CC1(NC[C@H](O)c2cc(F)cc3[nH]ncc23)CCC1 [Compound 04-148] | < 10 nM |
| CC(C)NC[C@H](O)c1cc(F)cc2[nH]ncc12 [Compound 04-149] | < 10 nM |
| COc1ccc([C@@H](O)CNC(C)(C)C)c2cn[nH]c12 [Compound 04-150] | 10 to 100 nM |
| CC(C)(C)NC[C@H](O)c1cccc2[nH]nc(C#N)c12 [Compound 04-151] | < 10 nM |
| CC(C)NC[C@H](O)c1cccc2[nH]c(=O)ccc12 [Compound 04-152] | < 10 nM |
| CC(C)(C)NC[C@H](O)c1cccc2[nH]ncc12 [Compound 04-153] | > 1000 nM |
| COc1cc([C@@H](O)CNC(C)(C)C)c2cn[nH]c2c1 [Compound 04-154] | 100 to 1000 nM |
| Cc1cc([C@@H](O)CNC(C)(C)C)cc2nc[nH]c12 [Compound 04-155] | > 1000 nM |
| CC(C)(C)NC[C@H](O)c1cc(F)c2[nH]cnc2c1 [Compound 04-156] | 10 to 100 nM |
| CC(C)(C)NC[C@H](O)c1cnc2[nH]cnc2c1 [Compound 04-157] | 100 to 1000 nM |
| CC(C)(C)NC[C@H](O)c1cccc2c1C(F)(F)C(=O)N2 [Compound 04-158] | 10 to 100 nM |

— patent publication US20220315534A1, “BETA ADRENERGIC AGONIST AND METHODS OF USING THE SAME” (Curasen Therapeutics, Inc., priority 2019, published 2022)
